Experimental data as given in patent EP0974573A1, “PHENYLPROPENONE COMPOUNDS AND MEDICINES CONTAINING THE SAME” (Kabushiki Kaisha Yakult Honsha, priority 1997, dated 1998).

Columns and labels:
[1] = test system: J774.1 strain, an established cell line of mouse macrophage; experiment: Inhibitory effects on the accumulation of cholesterol esters in macrophage (Test 2); type: cell-based; conditions: J774.1 mouse macrophage, 12 hours incubation with cholesterol liposomes
Method: Inhibitory effects on the accumulation of cholesterol esters in macrophage were tested using J774.1 strain, an established cell line of mouse macrophage.
Metabolism of LDL in endothelial cells or smooth muscle cells causes downregulation of the LDL receptor by excess free cholesterol in the cells, but in a macrophage, uptake of modified lDL takes place via a scavenger receptor. As no regulation is applied to this pathway, cholesterol esters progressively accumulate without any limitation.
It was therefore studied whether or not corydaline would inhibit intracellular accumulation of cholesterol esters by having liposomes, which were formed of […] cholesterol and phosphatidylcholine, uptaken in macrophage cells and then causing them to act on acyl-CoA:cholesterol acyltransferase which existed on rough-surfaced endoplasmic reticula.
The macrophage cells were incubated for 2 days under 5% CO2 on an RPMI 1640 medium (product of NISSUI PHARMACEUTICAL CO., LTD.) which had been added with 10% fetal bovine serum, penicilin (50 U/mℓ) and streptomycin (50 µg/mℓ). Trypsinization was then conducted, and cells attached to the bottom of each well were peeled off and formulated into a cell suspension. The cells were washed with a fresh supply of the above-described culture medium, and the cell solution was then seeded at 2 x 10^6 cells/mℓ on a 24-well multiple well plate ("25820-24", product of CORNING INC.). After incubation at 37°C under 5% CO2 for 37 hours, the culture medium was replaced with a fresh supply of the above-described culture medium and, after a 0.3 M glucose solution (40 µℓ) with cholesterol [80 µg; containing 0.4 µCi of (^3H)-cholesterol] and phosphatidylcholine (160 µg) contained therein and a methanol solution (10 µℓ)with a test sample dissolved therein were added, incubation was conducted for 12 hours. These procedures were carried out aseptically.
After completion of the incubation, cells attached to each bottom were washed 5 times with a serum-free RPMI 1640 medium by a graduated pipet, and isopropanol (1 mℓ) was added to extract intracellular cholesterol and formed cholesterol esters. The extract was coated in its entirety on a silica gel thin layer chromatography ("Art 5553", product of MERCK & Co., INC.) and subsequent to development with a 80:20:2 mixture of hexane, ethyl ether and formic acid, autoradiography was performed.
A section, which contained ^3H-labelled cholesterol esters and cholesterol, was cut off. Its radioactivity was measured by a liquid scintillation counter and compared with a control, whereby a cholesterol ester accumulation inhibition rate was determined.

[2] = test system: rat-derived ACAT; experiment: Inhibitory effects on rat-derived ACAT (Test 1); type: biochemical; conditions: crude enzyme from microsome protein fractions of rat liver, (14C)-oleoyl-CoA substrate, 37°C
Method: To test effects on ACAT, a reaction was conducted in vitro to form (^14C)-cholesteryl oleate from endogeneous cholesterol in the presence of (^14C)-oleoyl-CoA as a substrate by using a crude enzyme prepared from microzome protein fractions of a rat liver.
The reaction mixture had the following composition: 20 µℓ of microsome protein (1.83 mg/mℓ), 20 µℓ of (^14C)-oleoyl-CoA (5 µCi/mℓ, BSA: 96 nmol/mℓ), 106 µℓ of 100 mM phosphate buffer (containing 5 mM of dithiothreitol, pH 7.4) and a sample dissolved in 4 µℓ of methanol or dimethyl sulfoxide; 150 µℓ in total.
The reaction was conducted at 37°C. After an elapse of a predetermined reaction time (18 minutes in general), a 2:1 mixture of chloroform and methanol (5.65 mℓ) was added to terminate the reaction. A 0.04 N aquous solution of hydrochloric acid (0.98 mℓ) and as a carrier, cholesteryl oleate were added, followed by extraction for 20 minutes on a shaking apparatus. The mixture was then allowed to stand overnight in a cold dark place. On the following day, the separated lower chloroform layer was extracted in its entirety and was dried under a nitrogen gas stream. The remaining upper layer was added with the lower layer (5.65 mℓ) of the Folch's partition solution, and was extracted again. After the mixture was allowed to stand overnight in a dark place, the lower layer was drawn in its entirety. This lower layer was combined with the lower chloroform layer fraction, which had already been dried to solid, and the mixture was then dried to solid.
The solid was then dissolved in chlorofrom (200 µℓ), and the solution was coated in its entirety on a G60 plate (aluminum sheet) for silica gel thin layer chromatography. After the solid was developedover 10 cm with a 10:190 mixture of diethyl ether and petroleum ether, autoradiography was conducted and the formation of (^14C)-colesteryl oleate was confirmed. This section was then cut off. The radioactivity of each sample was measured by subjecting it to liquid scintillation counting for 5 minutes in toluene or was measured for 30 minutes by a "Betascope" (manufactured by BETA-GEN INC. The results so obtained are shown in Table 1. Table 1

| Compound | IC50 ([1]; Mus musculus, J774.1, 12 h) [nM] | IC50 [2] [nM] | IC50 [1] [nM] |
| --- | --- | --- | --- |
| COc1cc(/C=C/C(=O)Nc2c(C)cc(C)cc2C)cc(OC)c1OCc1ccccc1 [Compound 67, N-(2,4,6-trimethylphenyl)-(2E)-3-(3,5-dimethoxy-4-benzyloxyphenyl)-2-propenamide] | 870 |  |  |
| COc1cc(/C=C/C(=O)Nc2ccc(C(C)(C)C)cc2)cc(OC)c1OCc1ccccc1 [Compound 69, N-(4-tert-butylphenyl)-(2E)-3-(3,5-dimethoxy-4-benzyloxyphenyl)-2-propenamide] | 28 |  |  |
| COc1cc(/C=C/C(=O)NCc2ccccc2)cc(OC)c1OCc1ccccc1 [Compound 58, N-benzyl-(2E)-3-(3,5-dimethoxy-4-benzyloxyphenyl)-2-propenamide] | 930 |  |  |
| COc1cc(/C=C/C(=O)Nc2ccccc2)cc(OC)c1OCc1ccccc1 [Compound 76, N-phenyl-(2E)-3-(3,5-dimethoxy-4-benzyloxyphenyl)-2-propenamide] | 490 |  |  |
| COc1cc(/C=C/C(=O)Nc2ccc(I)cc2)cc(OC)c1OCc1ccccc1 [Compound 80, N-(4-iodophenyl)-(2E)-3-(3,5-dimethoxy-4-benzyloxyphenyl)-2-propenamide] | 43 |  |  |
| CCCCCCCCCCCCOc1c(OC)cc(/C=C/C(=O)NN2CCN(c3ccc(C)cc3C)CC2)cc1OC [Compound 19, N-[4-(2,4-dimethylphenyl)-1,4-diazacyclohexyl]-(2E)-3-(3,5-dimethoxy-4-dodecyloxyphenyl) -2-propenamide] | 250 | 70 |  |
| COc1cc(/C=C/C(=O)Nc2ccc(C)cc2)cc(OC)c1OCc1ccccc1 [Compound 71, N-(4-methylphenyl)-(2E)-3-(3,5-dimethoxy-4-benzyloxyphenyl)-2-propenamide] | 120 | 37 |  |
| COc1cc(/C=C/C(=O)Nc2ccc(Cl)c(Cl)c2)cc(OC)c1OCc1ccccc1 [Compound 81, N-(3,4-dichlorophenyl)-(2E)-3-(3,5-dimethoxy-4-benzyloxyphenyl)-2-propenamide] | 150 |  |  |
| N-[4-(2,4-dimethylphenyl)-1,4-diazacyclohexyl]-(2E)-3-[3,5-dimethoxy-4-(3-phenyl)propyloxy]-2-propenamide [Compound 23] |  |  | 32 |
| COc1cc(/C=C/C(=O)Nc2cc(C(F)(F)F)cc(C(F)(F)F)c2)cc(OC)c1OCc1ccccc1 [Compound 83, N-(3,5-bistrifluoromethylphenyl)-(2E)-3-(3,5-dimethoxy-4-benzyloxyphenyl)-2-propenamide] | 430 | 60 |  |
| CCCCCCOc1c(OC)cc(/C=C/C(=O)N2CCN(c3ccc(C)cc3C)CC2)cc1OC [Compound 13] |  | 79 | 200 |
| COc1cc(/C=C/C(=O)Nc2c(C)cccc2C)cc(OC)c1OCc1ccccc1 [Compound 66, N-(2,6-dimethylphenyl)-(2E)-3-(3,5-dimethoxy-4-benzyloxyphenyl)-2-propenamide] | 900 | 47 |  |
| COc1cc(/C=C/C(=O)Nc2ccc(N(C)C)cc2)cc(OC)c1OCc1ccccc1 [Compound 74, N-[4-(N',N^'-dimethylamino)phenyl]-(2E)-3-(3,5-dimethoxy-4-benzyloxyphenyl)-2-propenamide] |  | 90 | 990 |
| COc1cc(/C=C/C(=O)Nc2c(C(C)C)cccc2C(C)C)cc(OC)c1OCc1ccccc1 [Compound 68, N-(2,6-diisopropylphenyl)-(2E)-3-(3,5-dimethoxy-4-benzyloxyphenyl)-2-propenamide] | 790 | 72 |  |
| COc1cc(/C=C/C(=O)Nc2ccccc2C(C)(C)C)cc(OC)c1OCc1ccccc1 [Compound 70, N-(2-tert-butylphenyl)-(2E)-3-(3,5-dimethoxy-4-benzyloxyphenyl)-2-propenamide] | 840 |  |  |
| COc1cc(/C=C/C(=O)Nc2ccc(C)c(C)c2)cc(OC)c1OCc1ccccc1 [Compound 65, N-(3,4-dimethylphenyl)-(2E)-3-(3,5-dimethoxy-4-benzyloxyphenyl)-2-propenamide] | 46 | 47 |  |
| COc1cc(/C=C/C(=O)NCCCCc2ccccc2)cc(OC)c1OCc1ccccc1 [Compound 61, N-(4-phenyl)butyl-(2E)-3-(3,5-dimethoxy-4-benzyloxyphenyl)-2-propenamide] | 840 |  |  |
| COc1cc(/C=C/C(=O)NC2CCN(Cc3ccccc3)CC2)cc(OC)c1OCc1ccccc1 [Compound 62, N-[4-(1-benzyl)piperidino]-(2E)-3-(3,5-dimethoxy-4-benzyloxyphenyl)-2-propenamide] |  |  | 840 |
| COc1cc(/C=C/C(=O)Nc2ccc(Br)cc2)cc(OC)c1OCc1ccccc1 [Compound 79, N-(4-bromophenyl)-(2E)-3-(3,5-dimethoxy-4-benzyloxyphenyl)-2-propenamide] | 78 |  |  |
| COc1cc(/C=C/C(=O)Nc2ccc(F)cc2)cc(OC)c1OCc1ccccc1 [Compound 77, N-(4-fluorophenyl)-(2E)-3-(3,5-dimethoxy-4-benzyloxyphenyl)-2-propenamide] | 470 | 76 |  |
| COc1cc(/C=C/C(=O)Nc2ccc(Oc3ccccc3)cc2)cc(OC)c1OCc1ccccc1 [Compound 85, N-(4-phenoxyphenyl)-(2E)-3-(3,5-dimethoxy-4-benzyloxyphenyl)-2-propenamide] | 26 |  |  |
| COc1cc(/C=C/C(=O)N2CCN(c3ccc(C)c(C)c3)CC2)cc(OC)c1OCc1ccccc1 [Compound 11, N-[4-(3,4-dimethylphenyl)-1,4-diazacyclohexyl]-(2E)-(3,5-dimethoxy-4-benzyloxyphenyl)-2-propenamide] |  | 60 | 189 |
| COc1cc(/C=C/C(=O)Nc2ccc(C(F)(F)F)cc2)cc(OC)c1OCc1ccccc1 [Compound 82, N-(4-trifluoromethylphenyl)-(2E)-3-(3,5-dimethoxy-4-benzyloxyphenyl)-2-propenamide] | 30 | 42 |  |
| COc1cc(/C=C/C(=O)Nc2ccc(OC(C)C)cc2)cc(OC)c1OCc1ccccc1 [Compound 73, N-(4-isopropyloxyphenyl)-(2E)-3-(3,5-dimethoxy-4-benzyloxyphenyl)-2-propenamide] | 31 |  |  |
| COc1cc(/C=C/C(=O)NCCCc2ccccc2)cc(OC)c1OCc1ccccc1 [Compound 60, N-(3-phenyl)propyl-(2E)-3-(3,5-dimethoxy-4-benzyloxyphenyl)-2-propenamide] | 870 |  |  |
| COc1cc(/C=C/C(=O)NCCc2ccccc2)cc(OC)c1OCc1ccccc1 [Compound 59, N-(2-phenyl)ethyl-(2E)-3-(3,5-dimethoxy-4-benzyloxyphenyl)-2-propenamide] | 620 |  |  |
| COc1ccc(NC(=O)/C=C/c2cc(OC)c(OCc3ccccc3)c(OC)c2)cc1 [Compound 72, N-(4-methoxyphenyl)-(2E)-3-(3,5-dimethoxy-4-benzyloxyphenyl)-2-propenamide] | 170 | 35 |  |
| COc1cc(/C=C/C(=O)Nc2ccc(C)cc2C)cc(OC)c1OCc1ccccc1 [Compound 63, N-(2,4-dimethylphenyl)-(2E)-3-(3,5-dimethoxy-4-benzyloxyphenyl)-2-propenamide] | 520 | 52 |  |
